{"source": "patent US5548064A", "about": "“Vitamin B12 conjugates with EPO, analogues thereof and pharmaceutical compositions” (Biotech Australia Pty Limited, priority 1993, dated 1996)", "data": [{"target": "intrinsic factor (IF) (Homo sapiens, UniProt P27352)", "sequence (P27352 19-417, species assumed)": "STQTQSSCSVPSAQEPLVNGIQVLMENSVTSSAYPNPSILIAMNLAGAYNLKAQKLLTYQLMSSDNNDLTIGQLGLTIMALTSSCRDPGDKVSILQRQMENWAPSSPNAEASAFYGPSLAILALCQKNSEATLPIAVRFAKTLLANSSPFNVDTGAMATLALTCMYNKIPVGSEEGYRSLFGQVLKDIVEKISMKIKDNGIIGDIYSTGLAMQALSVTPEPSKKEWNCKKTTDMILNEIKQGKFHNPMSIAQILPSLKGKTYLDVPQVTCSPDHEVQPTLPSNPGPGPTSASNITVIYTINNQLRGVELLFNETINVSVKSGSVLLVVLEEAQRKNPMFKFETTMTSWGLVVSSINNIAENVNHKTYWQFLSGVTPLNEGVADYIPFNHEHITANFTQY", "test": "Relative intrinsic factor (IF) affinity of eVB12 analogues and complexes", "format": "binding", "details": "% of native eVB12", "text": "(§1) IF Affinity is expressed as a percentage of the affinity of the eVB12 derivative relative to native, unmodified VB12.", "values": [{"molecule": "GCSF-dithioproplonamido[12-aminododecylamido]-eVB12 (conjugate, UniProt P09919 31-207, looked up, disulphide-linked aminododecyl vitamin B12 conjugate, GCSF linked by disulphide at Cys-17 to DTP-aminododecyl-eVB12 (section 1.7)) Granulocyte …: TPLGPASSLPQSFLLKCLEQVRKIQGDGAALQEKLVSECATYKLCHPEELVLLGHSLGIPWAPLSSCPSQALQLAGCLSQLHSGLFLYQGLLQALEGISPELGPTLDTLQLDVADFATTIWQQMEELGMAPALQPTQGAMPAFASAFQRRAGGVLVASHLQSFLEVSYRVLRHLAQP", "IF Affinity": "2-3%"}]}, {"target": "intrinsic factor (IF) (Homo sapiens, UniProt P27352)", "test": "Relative intrinsic factor (IF) affinity of eVB12 analogues and complexes", "format": "binding", "details": "percentage of the affinity of the eVB12 derivative relative to native, unmodified VB12", "text": "as §1", "units": {"IF Affinity": "%"}, "values": [{"molecule": "2-aminoethylamido-eVB12", "IF Affinity": 48}, {"molecule": "6-aminohexylamido-eVB12", "IF Affinity": 91}, {"molecule": "12-aminododecyl-suberyl-hexylamido-eVB12", "IF Affinity": 82}, {"molecule": "12-aminododecylamido-eVB12", "IF Affinity": 74}, {"molecule": "EPO-acyl[adipyldlhydrazidyl]-eVB12", "IF Affinity": 11}, {"molecule": "EPO-acylhydrazidyl-eVB12", "IF Affinity": 6}, {"molecule": "adipyldihydrazidyl-eVB12", "IF Affinity": 44}, {"molecule": "dithiopropionamido[6-aminohexylamido]-eVB12", "IF Affinity": 7}, {"molecule": "dithioproplonamido[6-aminohexylamido]-eVB12", "IF Affinity": 11}, {"molecule": "dithlopropionamido[2-aminoethylamido]-eVB12", "IF Affinity": 6}, {"molecule": "eVB12 carboxylate", "IF Affinity": 35}, {"molecule": "hydrazidyl-eVB12", "IF Affinity": 100}, {"molecule": "GCSF-dithioproplonamido[12-aminododecylamido]-eVB12 (conjugate, UniProt P09919 31-207, looked up, disulphide-linked aminododecyl vitamin B12 conjugate, GCSF linked by disulphide at Cys-17 to DTP-aminododecyl-eVB12 (section 1.7)) Granulocyte …: TPLGPASSLPQSFLLKCLEQVRKIQGDGAALQEKLVSECATYKLCHPEELVLLGHSLGIPWAPLSSCPSQALQLAGCLSQLHSGLFLYQGLLQALEGISPELGPTLDTLQLDVADFATTIWQQMEELGMAPALQPTQGAMPAFASAFQRRAGGVLVASHLQSFLEVSYRVLRHLAQP", "IF Affinity": 3}, {"molecule": "GCSF-acylhydrazidyl-eVB12 (conjugate, UniProt P09919 31-207, looked up, hydrazide vitamin B12 conjugate, EDAC-mediated conjugate of hydrazido-eVB12 with carboxyl groups of GCSF (section 1.11)) Granulocyte …: TPLGPASSLPQSFLLKCLEQVRKIQGDGAALQEKLVSECATYKLCHPEELVLLGHSLGIPWAPLSSCPSQALQLAGCLSQLHSGLFLYQGLLQALEGISPELGPTLDTLQLDVADFATTIWQQMEELGMAPALQPTQGAMPAFASAFQRRAGGVLVASHLQSFLEVSYRVLRHLAQP", "IF Affinity": 10}, {"molecule": "GCSF-acyl[adipyldihydrazidyl]-eVB12 (conjugate, UniProt P09919 31-207, looked up, adipyl-dihydrazide vitamin B12 conjugate, EDAC-mediated conjugate of adipylhydrazido-eVB12 with GCSF (section 1.12)) Granulocyte …: TPLGPASSLPQSFLLKCLEQVRKIQGDGAALQEKLVSECATYKLCHPEELVLLGHSLGIPWAPLSSCPSQALQLAGCLSQLHSGLFLYQGLLQALEGISPELGPTLDTLQLDVADFATTIWQQMEELGMAPALQPTQGAMPAFASAFQRRAGGVLVASHLQSFLEVSYRVLRHLAQP", "IF Affinity": 7}, {"molecule": "GCSF-diothloproplonamido12-aminododecyl-suberyl-hexylamido-eVB12 (conjugate, UniProt P09919 31-207, looked up, disulphide-linked dodecylsuberylhexyl vitamin B12 conjugate, GCSF linked by disulphide to DTP-dodecylsuberylhexyl-eVB12 (section 1.9)) Granulocyte …: TPLGPASSLPQSFLLKCLEQVRKIQGDGAALQEKLVSECATYKLCHPEELVLLGHSLGIPWAPLSSCPSQALQLAGCLSQLHSGLFLYQGLLQALEGISPELGPTLDTLQLDVADFATTIWQQMEELGMAPALQPTQGAMPAFASAFQRRAGGVLVASHLQSFLEVSYRVLRHLAQP", "IF Affinity": 28}]}]}
